Laboratory results: patent US6504030B1, “Polymorphic form of clopidogrel hydrogen sulphate” (Sanofi-Synthelabo, priority 1998, dated 2003)
Counter-ions that a name gives are not always drawn.

Experiments:
platelet aggregation = conditions: enantiomers compared, per EP 281459; cited from earlier work
[1] = compared with dextrorotatory isomer, per EP 281459; cited from earlier work
[2] = compared with Form 1

Row | compactness of bulk solid [2] | electrostatic behaviour of bulk solid [2] | Compound | platelet aggregation inhibiting activity (platelet aggregation) | tolerance [1]
1 | – | – | COC(=O)C(c1ccccc1Cl)N1CCc2sccc2C1 (single isomer, unassigned) [levorotatory isomer] | less active | less well tolerated
2 | more compact | much less electrostatic than Form 1 | COC(=O)[C@H](c1ccccc1Cl)N1CCc2sccc2C1.O=S(=O)(O)O [Form 2, hydrogen sulfate of methyl (+)-(S)-α-(2-chlorophenyl)-4,5,6,7-tetrahydrothieno[3,2-c]pyridine-5-acetate] | – | –
3 | – | – | COC(=O)[C@H](c1ccccc1Cl)N1CCc2sccc2C1 [clopidogrel hydrogen sulfate, hydrogen sulfate of methyl (+)-(S)-α-(2-chlorophenyl)-4,5,6,7-tetrahydrothieno[3,2-c]pyridine-5-acetate] | excellent platelet aggregation inhibiting activity | –
